Measured values: patent US11602553B2, “Composition of lactobacillus and berry extract” (UNIVERSITY OF FLORIDA RESEARCH FOUNDATION, INCORPORATED, priority 2018, dated 2023)

Assay: Radical scavenging activity (DPPH method)
Conditions: positive control
Experimental: Residual phenolic in growth media ([…]) were recovered as follows: samples of the growth media were taken at different time points along L. johnsonii N6.2 growth kinetics. The supernatant was recovered by centrifugation (4000 g for 30 min at 4° C.) and saved as aliquots at -20° C. until processing. Soluble phenolic compounds were recovered by solid-phase extraction using […] column (ThermoScientific, WI, USA) as described by Correa-Betanz et al. (2015). The total scavenging activity of the culture media was assessed by using the DPPH method described by Dong et al. (2017). The samples ([…] or its polyphenol enriched fractions) were diluted (1⁄2 and 1/10) in methanol. […] The quenching ability of L-ascorbic acid was used as a positive control. The absorbance was measured at 515 nm using a Sinergy HT microplate reader (Biotek, Winooski, Vt., USA). The scavenging activity (SA) was estimated by the following formula: % SA=[(Abscontrol-blank-Abssample-blank)/Abscontrol-blank]×100. Total radical scavenging activity (% SA) is expressed in percent of quenching activity per μg of gallic acid equivalents.

O=C1O[C@H]([C@@H](O)CO)C(O)=C1O [L-ascorbic acid]
DPPH scavenging activity (% SA): 20.2±0.85 % SA
